{
  "source": "patent US20250161314A1",
  "about": "“METHOD FOR TREATMENT OR IMPROVEMENT OF NON-ALCOHOLIC FATTY LIVER DISEASE AND OBESITY BY LUMICHROME” (CATHAY GENERAL HOSPITAL, priority 2023, published 2025)",
  "type_in_all_cases": "in vivo",
  "key": {"C57BL/6 male mice [1]": {"test_system": "C57BL/6 male mice", "experiment": "Grip strength test by grip strength meter", "conditions": "lumichrome 0.8 or 4 mg/kg/day oral gavage"}, "FABP1": {"test_system": "FABP1", "experiment": "qPCR relative mRNA expression level of FABP1 in the liver", "conditions": "HFD mice", "description": "(§1) The serum was further analyzed by a dry chemistry auto analyzer (DRI-CHEM NX500i, Fujifilm, Tokyo, Japan) to measure the following blood biochemical values: AST, ALT and LDH. • (4) The mice in all groups were eventually sacrificed by excessive anesthesia, and both the epididymal fat and liver thereof were collected for a weight measurement, wherein the liver was divided into three parts, and a first part thereof, the first liver tissue, was further tested to determine the lipid amount in the liver by a lipid extraction kit (Chloroform-Free) (ab211044, Abeam, Cambridge, UK). • (5) A second part of the liver, the second liver tissue, was soaked in 4% formaldehyde (10% formalin) for frozen section, and the obtained liver tissue section was further subjected to (1) H/E staining and (2) Oil red O (ORO) staining for lipids (Bio-check laboratories, Taipei, Taiwan). • (6) A third part of the liver, the third liver tissue, was subjected to mRNA extraction, and the extracted mRNA was further subjected to quantitative polymerase chain reaction (qPCR). Further, (1) by qPCR with the primers of SEQ ID NO:1 and SEQ ID NO:2, the relative mRNA expression level of Acta2, which relates to liver fibrosis, in the liver in all groups was determined. […]"}, "CD36": {"test_system": "CD36", "experiment": "qPCR relative mRNA expression level of CD36 in the liver", "conditions": "HFD mice", "description": "as §1"}, "C57BL/6 male mice [2]": {"test_system": "C57BL/6 male mice", "experiment": "Serum blood biochemical values AST, ALT and LDH by dry chemistry auto analyzer", "conditions": "HFD mice", "description": "(§2) The serum was further analyzed by a dry chemistry auto analyzer (DRI-CHEM NX500i, Fujifilm, Tokyo, Japan) to measure the following blood biochemical values: AST, ALT and LDH. • (4) The mice in all groups were eventually sacrificed by excessive anesthesia, and both the epididymal fat and liver thereof were collected for a weight measurement, wherein the liver was divided into three parts, and a first part thereof, the first liver tissue, was further tested to determine the lipid amount in the liver by a lipid extraction kit (Chloroform-Free) (ab211044, Abeam, Cambridge, UK). • (5) A second part of the liver, the second liver tissue, was soaked in 4% formaldehyde (10% formalin) for frozen section, and the obtained liver tissue section was further subjected to (1) H/E staining and (2) Oil red O (ORO) staining for lipids (Bio-check laboratories, Taipei, Taiwan). • (6) A third part of the liver, the third liver tissue, was subjected to mRNA extraction, and the extracted mRNA was further subjected to quantitative polymerase chain reaction (qPCR). Further, (1) by qPCR with the primers of SEQ ID NO:1 and SEQ ID NO:2, the relative mRNA expression level of Acta2, which relates to liver fibrosis, in the liver in all groups was determined. (2) by qPCR with the primers of SEQ ID NO:3 and SEQ ID NO:4, the relative mRNA expression level of CD36, which affects fat uptake by liver cells, in all groups was determined; and (3) by qPCR with the primers of SEQ ID NO:5 and SEQ ID NO:6, the relative mRNA expression level of FABP1, which affects fat uptake by liver cells, in all groups was determined.\n(§3) The present invention used a statistic and graphing software (prism ver. 6) for data analysis. The data of the numerical mean±standard deviation (SD) of the independent samples in all six groups were firstly obtained, and further subjected to One-way ANOVA for statistics. The post-hoc test was Tukey multiple comparison test. The differences between the groups were analyzed separately, and a p value less than 0.05 indicated a statistically significant difference."}, "C57BL/6 male mice [3]": {"test_system": "C57BL/6 male mice", "experiment": "Weekly weight measurement (weight gain) of high-fat diet mice", "conditions": "HFD mice, 12 weeks"}, "Acta2": {"test_system": "Acta2", "experiment": "qPCR relative mRNA expression level of Acta2 in the liver", "conditions": "HFD mice", "description": "as §1"}, "C57BL/6 male mice [4]": {"test_system": "C57BL/6 male mice", "experiment": "Body size and liver appearance of mice after high-fat diet and lumichrome", "conditions": "HFD mice; for liver appearance (fatty liver): from 21th week of 32 weeks", "description": "as §2"}, "C57BL/6 male mice [5]": {"test_system": "C57BL/6 male mice", "experiment": "Epididymal fat weight, liver weight and lipid amount in the liver", "conditions": "HFD mice", "description": "as §2, §3"}, "C57BL/6 male mice [6]": {"test_system": "C57BL/6 male mice", "experiment": "Liver sections, H/E staining and Oil red O staining for lipid droplets", "conditions": "HFD mice, H/E and ORO staining", "description": "as §1"}, "[7]": {"conditions": "lumichrome high dose 4 mg/kg/day oral gavage"}, "[8]": {"conditions": "lumichrome low dose 0.8 mg/kg/day oral gavage"}, "[9]": {"conditions": "lumichrome high dose 4 mg/kg/day oral gavage, 4 mg/kg/day"}},
  "note": "“Also recorded” adds a separate entry of the source.",
  "data": [
    {"smiles": "Cc1cc2nc3[nH]c(=O)[nH]c(=O)c3nc2cc1C", "note": "[lumichrome]", "values": [
      {"measurement": "grip strength (muscular endurance)", "setting": "C57BL/6 male mice [1]; HFD mice", "result": "did not cause a decrease in muscular endurance of mice"},
      {"measurement": "grip strength (muscular endurance)", "setting": "C57BL/6 male mice [1]; control diet mice", "result": "did not cause a decrease in muscular endurance of mice"},
      {"measurement": "relative mRNA expression level of FABP1 in the liver", "setting": "FABP1; [7]", "result": "less mRNA expression of CD36 and FABP1 than that of the High-fat diet group"},
      {"measurement": "relative mRNA expression level of FABP1 in the liver", "setting": "FABP1; [8]", "result": "less mRNA expression of CD36 and FABP1 than that of the High-fat diet group"},
      {"measurement": "relative mRNA expression level of CD36 in the liver", "setting": "CD36; [7]", "result": "less mRNA expression of CD36 and FABP1 than that of the High-fat diet group"},
      {"measurement": "relative mRNA expression level of CD36 in the liver", "setting": "CD36; [8]", "result": "less mRNA expression of CD36 and FABP1 than that of the High-fat diet group"},
      {"measurement": "ALT in the serum", "setting": "C57BL/6 male mice [2]; [7]", "result": "lower than those of the High-fat diet group"},
      {"measurement": "AST in the serum", "setting": "C57BL/6 male mice [2]; [7]", "result": "lower than those of the High-fat diet group"},
      {"measurement": "LDH in the serum", "setting": "C57BL/6 male mice [2]; [7]", "result": "lower than those of the High-fat diet group"},
      {"measurement": "ALT in the serum", "setting": "C57BL/6 male mice [2]; [8]", "result": "lower than those of the High-fat diet group"},
      {"measurement": "AST in the serum", "setting": "C57BL/6 male mice [2]; [8]", "result": "lower than those of the High-fat diet group"},
      {"measurement": "LDH in the serum", "setting": "C57BL/6 male mice [2]; [8]", "result": "lower than those of the High-fat diet group"},
      {"measurement": "weight gain", "setting": "C57BL/6 male mice [3]; [9]", "result": "ameliorate weight gain increase of mice resulting from the high-fat diet; also recorded: no longer increased greatly at and after the fourth week after providing lumichrome"},
      {"measurement": "weight gain", "setting": "C57BL/6 male mice [3]; [8]", "result": "ameliorate weight gain increase of mice resulting from the high-fat diet"},
      {"measurement": "relative mRNA expression level of Acta2 in the liver", "setting": "Acta2; [7]", "result": "less mRNA expression of Acta2 than that of the High-fat diet group"},
      {"measurement": "relative mRNA expression level of Acta2 in the liver", "setting": "Acta2; [8]", "result": "less mRNA expression of Acta2 than that of the High-fat diet group"},
      {"measurement": "body size of mice", "setting": "C57BL/6 male mice [4]; [7]", "result": "more obvious efficacy to ameliorate the body size increase of mice"},
      {"measurement": "liver appearance (fatty liver)", "setting": "C57BL/6 male mice [4]; [7]", "result": "improve the appearance of a fatty liver to regain a blood red color"},
      {"measurement": "body size of mice", "setting": "C57BL/6 male mice [4]; [8]", "result": "inhibit the increase of the body size of mice"},
      {"measurement": "liver appearance (fatty liver)", "setting": "C57BL/6 male mice [4]; [8]", "result": "improve the appearance of a fatty liver and regain a red color"},
      {"measurement": "epididymal fat weight", "setting": "C57BL/6 male mice [5]; [7]", "result": "lower than those of the High-fat diet group"},
      {"measurement": "lipid amount in the liver", "setting": "C57BL/6 male mice [5]; [7]", "result": "lower than those of the High-fat diet group"},
      {"measurement": "liver weight", "setting": "C57BL/6 male mice [5]; [7]", "result": "lower than those of the High-fat diet group"},
      {"measurement": "epididymal fat weight", "setting": "C57BL/6 male mice [5]; [8]", "result": "lower than those of the High-fat diet group"},
      {"measurement": "liver weight", "setting": "C57BL/6 male mice [5]; [8]", "result": "lower than those of the High-fat diet group"},
      {"measurement": "lipid droplets size and accumulation in the liver", "setting": "C57BL/6 male mice [6]; [9]", "result": "smaller lipid droplets and less lipid droplets accumulation than those of the High-fat diet group; also recorded: significantly better than that in the HFD-lumichrome in low dose group"},
      {"measurement": "lipid droplets size and accumulation in the liver", "setting": "C57BL/6 male mice [6]; [8]", "result": "smaller lipid droplets and less lipid droplets accumulation than those of the High-fat diet group"}
    ]}
  ]
}
